Measurements as given in ChEMBL document CHEMBL4814067, “An optimized analog of antimicrobial peptide Jelleine-1 shows enhanced antimicrobial activity against multidrug resistant P. aeruginosa and negligible toxicity in vitro and in vivo” (Eur J Med Chem, 2021).
≈ marks a conversion by molar mass, not a printed value. Calls of active or inactive are those of the source. The calls are words filed in the database; no cut-off is given here. Positions of bridges follow the written chain, without caps; N, C: chain ends. Non-standard residues stand in square brackets, D forms with d. Residues, ends and D or L forms follow the SMILES beside them. *: point of attachment. X1 = CC[C@H](C)CCCCC(=O)*; Dab = NCC[C@H](N)C(=O)O

Legend:
Escherichia coli [1] = test: Antibacterial activity against Escherichia coli ATCC 25922 assessed as transparent well by visual inspection after 18 hrs by CLSI based-broth microdilution method; type: functional
Pseudomonas aeruginosa [2] = test: Antibacterial activity against Pseudomonas aeruginosa ATCC 27853 assessed as transparent well by visual inspection after 18 hrs by CLSI based-broth microdilution method; type: functional
Enterobacter sp. = test: Antibacterial activity against Enterobacter sakazakii ATCC 29544 assessed as transparent well by visual inspection after 18 hrs by CLSI based-broth microdilution method; type: functional
Staphylococcus aureus [3] = test: Antibacterial activity against Staphylococcus aureus ATCC 29213 assessed as transparent well by visual inspection after 18 hrs by CLSI based-broth microdilution method; type: functional; conditions: C1 ATCC 29213
Bacillus subtilis = test: Antibacterial activity against Bacillus subtilis ATCC 23857 assessed as transparent well by visual inspection after 18 hrs by CLSI based-broth microdilution method; type: functional
[4] = tested on: Staphylococcus epidermidis; test: Antibacterial activity against Staphylococcus epidermidis ATCC 12228 assessed as transparent well by visual inspection after 18 hrs by CLSI based-broth microdilution method; type: functional
Staphylococcus aureus [5] = test: Antibacterial activity against methicillin resistant Staphylococcus aureus clinical isolate 1 assessed as transparent well by visual inspection after 18 hrs by CLSI based-broth microdilution method; type: functional; conditions: C1
Staphylococcus aureus [6] = test: Antibacterial activity against methicillin resistant Staphylococcus aureus clinical isolate 2 assessed as transparent well by visual inspection after 18 hrs by CLSI based-broth microdilution method; type: functional
Staphylococcus aureus [7] = test: Antibacterial activity against methicillin resistant Staphylococcus aureus clinical isolate 3 assessed as transparent well by visual inspection after 18 hrs by CLSI based-broth microdilution method; type: functional
Staphylococcus aureus [8] = test: Antibacterial activity against methicillin resistant Staphylococcus aureus clinical isolate 4 assessed as transparent well by visual inspection after 18 hrs by CLSI based-broth microdilution method; type: functional
Escherichia coli [9] = test: Antibacterial activity against ESBL-producing Escherichia coli clinical isolate 1 assessed as transparent well by visual inspection after 18 hrs by CLSI based-broth microdilution method; type: functional
Escherichia coli [10] = test: Antibacterial activity against ESBL-producing Escherichia coli clinical isolate 2 assessed as transparent well by visual inspection after 18 hrs by CLSI based-broth microdilution method; type: functional
Escherichia coli [11] = test: Antibacterial activity against ESBL-producing Escherichia coli clinical isolate 3 assessed as transparent well by visual inspection after 18 hrs by CLSI based-broth microdilution method; type: functional
Escherichia coli [12] = test: Antibacterial activity against ESBL-producing Escherichia coli clinical isolate 4 assessed as transparent well by visual inspection after 18 hrs by CLSI based-broth microdilution method; type: functional
Escherichia coli [13] = test: Antibacterial activity against ESBL-producing Escherichia coli clinical isolate 5 assessed as transparent well by visual inspection after 18 hrs by CLSI based-broth microdilution method; type: functional
Pseudomonas aeruginosa [14] = test: Antibacterial activity against Pseudomonas aeruginosa clinical isolate assessed as transparent well by visual inspection after 18 hrs by CLSI based-broth microdilution method; type: functional
Erythrocyte [15] = test: Haemolytic activity in human erythrocytes at 256 uM by optical absorption assay; type: ADME, cell-based
Pseudomonas aeruginosa [16] = test: Inhibition of biofilm formation in multidrug-resistant Pseudomonas aeruginosa at 256 uM measured after 24 hrs by crystal violet staining based assay; type: functional, organism-based
Cell membrane [17] = test: Induction of outer membrane permeabilization in Escherichia coli using NPN hydrophobic fluorescent probe at 1 to 8 times of MIC measured for 15 mins by multimode reader
Cell membrane [18] = test: Induction of inner membrane permeabilization in Escherichia coli ML-35 assessed as increase in ONPG at 1 to 8 times of MIC measured 100 mins by multimode reader
Erythrocyte [19] = test: Haemolytic activity in human erythrocytes by optical absorption assay; type: ADME, cell-based
NIH3T3 = test: Cytotoxicity against mouse NIH/3T3 assessed as reduction in cell viability measured after 24 hrs by MTT assay; type: cell-based; conditions: nih3t3, 24 h
RAW264.7 = test: Cytotoxicity against mouse RAW264.7 assessed as reduction in cell viability measured after 24 hrs by MTT assay; type: cell-based; conditions: raw264.7, 24 h
HeLa = test: Cytotoxicity against human HeLa cells assessed as reduction in cell viability measured after 24 hrs by MTT assay; type: cell-based
Staphylococcus aureus [20] = test: Bactericidal activity against Staphylococcus aureus assessed as killing effect at 2 times MIC measured at 60 mins by bacterial colony counting assay; type: functional; conditions: 1 h
Escherichia coli [21] = test: Bactericidal activity against Escherichia coli assessed as killing effect at 2 times MIC measured at 60 mins by bacterial colony counting assay; type: functional; conditions: 1 h
Staphylococcus aureus [22] = test: Bactericidal activity against Staphylococcus aureus assessed as killing effect at 1 times MIC measured at 120 mins by bacterial colony counting assay; type: functional, organism-based
Escherichia coli [23] = test: Bactericidal activity against Escherichia coli assessed as killing effect at 1 times MIC measured at 120 mins by bacterial colony counting assay; type: functional, organism-based

## CC[C@H](C)CCCCC(=O)N[C@@H](CCN)C(=O)N[C@H](C(=O)N[C@@H](CCN)C(=O)N[C@H]1CCNC(=O)[C@H]([C@@H](C)O)NC(=O)[C@H](CCN)NC(=O)[C@H](CCN)NC(=O)[C@H](CC(C)C)NC(=O)[C@@H](Cc2ccccc2)NC(=O)[C@H](CCN)NC1=O)[C@@H](C)O (X1-[Dab]T[Dab][Dab][Dab][dF]L[Dab][Dab]T; lactam 4-C)
Escherichia coli [1]
  MIC: 0.5 µM (≈ 0.602 µg/mL)
Pseudomonas aeruginosa [2]
  MIC: 1 µM (≈ 1.2 µg/mL)
Enterobacter sp.
  MIC: 0.5 µM (≈ 0.602 µg/mL)
Staphylococcus aureus [3]
  MIC: 8 µM (≈ 9.63 µg/mL)
Bacillus subtilis
  MIC: 2 µM (≈ 2.41 µg/mL)
[4]
  MIC: 2 µM (≈ 2.41 µg/mL)
Staphylococcus aureus [5]
  MIC: 8 µM (≈ 9.63 µg/mL)
Staphylococcus aureus [6]
  MIC: 8 µM (≈ 9.63 µg/mL)
Staphylococcus aureus [7]
  MIC: 8 µM (≈ 9.63 µg/mL)
Staphylococcus aureus [8]
  MIC: 8 µM (≈ 9.63 µg/mL)
Escherichia coli [9]
  MIC: 0.5 µM (≈ 0.602 µg/mL)
Escherichia coli [10]
  MIC: 0.5 µM (≈ 0.602 µg/mL)
Escherichia coli [11]
  MIC: 0.5 µM (≈ 0.602 µg/mL)
Escherichia coli [12]
  MIC: 0.5 µM (≈ 0.602 µg/mL)
Escherichia coli [13]
  MIC: 0.5 µM (≈ 0.602 µg/mL)
Pseudomonas aeruginosa [14]
  MIC: 1 µM (≈ 1.2 µg/mL)

## H-PFKLKLHL-OH
Escherichia coli [1]
  MIC: 32 µM
Pseudomonas aeruginosa [2]
  MIC: 32 µM
Enterobacter sp.
  MIC: 32 µM
Staphylococcus aureus [3]
  MIC: 128 µM
Bacillus subtilis
  MIC: 32 µM
[4]
  MIC: 32 µM

## H-PFKLKLKL-OH
Escherichia coli [1]
  MIC: 32 µM
Pseudomonas aeruginosa [2]
  MIC: 32 µM
Enterobacter sp.
  MIC: 32 µM
Staphylococcus aureus [3]
  MIC: 128 µM
Bacillus subtilis
  MIC: 16 µM
[4]
  MIC: 16 µM

## H-PFKLSLHL-OH
Escherichia coli [1]
  MIC: 32 µM
Pseudomonas aeruginosa [2]
  MIC: 32 µM
Enterobacter sp.
  MIC: 64 µM
Staphylococcus aureus [3]
  MIC: 128 µM
Bacillus subtilis
  MIC: 32 µM
[4]
  MIC: 64 µM
Staphylococcus aureus [5]
  MIC: 128 µM
Staphylococcus aureus [6]
  MIC: 128 µM
Staphylococcus aureus [7]
  MIC: 128 µM
Staphylococcus aureus [8]
  MIC: 128 µM
Escherichia coli [9]
  MIC: 32 µM
Escherichia coli [10]
  MIC: 32 µM
Escherichia coli [11]
  MIC: 32 µM
Escherichia coli [12]
  MIC: 32 µM
Escherichia coli [13]
  MIC: 32 µM
Pseudomonas aeruginosa [14]
  MIC: 32 µM
Erythrocyte [15]
  Activity: Toxic
Pseudomonas aeruginosa [16]
  inhibition: Active
Cell membrane [17]
  Activity: Dose-Dependent Effect
Cell membrane [18]
  Activity: Active

## H-PFKLSLKL-OH
Escherichia coli [1]
  MIC: 32 µM
Pseudomonas aeruginosa [2]
  MIC: 32 µM
Enterobacter sp.
  MIC: 32 µM
Staphylococcus aureus [3]
  MIC: 128 µM
Bacillus subtilis
  MIC: 16 µM
[4]
  MIC: 16 µM

## H-PFRLRLHL-OH
Escherichia coli [1]
  MIC: 16 µM
Pseudomonas aeruginosa [2]
  MIC: 32 µM
Enterobacter sp.
  MIC: 32 µM
Staphylococcus aureus [3]
  MIC: 128 µM
Bacillus subtilis
  MIC: 16 µM
[4]
  MIC: 34 µM

## H-PFRLRLRL-OH
Escherichia coli [1]
  MIC: 8 µM
Pseudomonas aeruginosa [2]
  MIC: 8 µM
Enterobacter sp.
  MIC: 32 µM
Staphylococcus aureus [3]
  MIC: 64 µM
Bacillus subtilis
  MIC: 8 µM
[4]
  MIC: 16 µM
Staphylococcus aureus [5]
  MIC: 64 µM
Staphylococcus aureus [6]
  MIC: 64 µM
Staphylococcus aureus [7]
  MIC: 64 µM
Staphylococcus aureus [8]
  MIC: 64 µM
Escherichia coli [9]
  MIC: 8 µM
Escherichia coli [10]
  MIC: 8 µM
Escherichia coli [11]
  MIC: 8 µM
Escherichia coli [12]
  MIC: 8 µM
Escherichia coli [13]
  MIC: 8 µM
Pseudomonas aeruginosa [14]
  MIC: 8 µM
Erythrocyte [19]
  Activity: Non-Toxic
NIH3T3
  Activity: Non-Toxic
RAW264.7
  Activity: Non-Toxic
HeLa
  Activity: Non-Toxic
Staphylococcus aureus [20]
  Activity: 100%
Escherichia coli [21]
  Activity: 100%
Staphylococcus aureus [22]
  Activity: Active
Escherichia coli [23]
  Activity: Active
Pseudomonas aeruginosa [16]
  inhibition: Active
Cell membrane [17]
  Activity: Dose-Dependent Effect
Cell membrane [18]
  Activity: Active

## H-PFRLSLHL-OH
Escherichia coli [1]
  MIC: 32 µM
Pseudomonas aeruginosa [2]
  MIC: 32 µM
Enterobacter sp.
  MIC: 32 µM
Staphylococcus aureus [3]
  MIC: 128 µM
Bacillus subtilis
  MIC: 16 µM
[4]
  MIC: 34 µM

## H-PFRLSLRL-OH
Escherichia coli [1]
  MIC: 8 µM
Pseudomonas aeruginosa [2]
  MIC: 32 µM
Enterobacter sp.
  MIC: 16 µM
Staphylococcus aureus [3]
  MIC: 64 µM
Bacillus subtilis
  MIC: 16 µM
[4]
  MIC: 16 µM

## H-PWKLKLHL-OH
Escherichia coli [1]
  MIC: 16 µM
Pseudomonas aeruginosa [2]
  MIC: 32 µM
Enterobacter sp.
  MIC: 16 µM
Staphylococcus aureus [3]
  MIC: 64 µM
Bacillus subtilis
  MIC: 16 µM
[4]
  MIC: 32 µM

## H-PWKLKLKL-OH
Escherichia coli [1]
  MIC: 16 µM
Pseudomonas aeruginosa [2]
  MIC: 64 µM
Enterobacter sp.
  MIC: 16 µM
Staphylococcus aureus [3]
  MIC: 32 µM
Bacillus subtilis
  MIC: 16 µM
[4]
  MIC: 16 µM

## H-PWKLSLHL-OH
Escherichia coli [1]
  MIC: 16 µM
Pseudomonas aeruginosa [2]
  MIC: 16 µM
Enterobacter sp.
  MIC: 16 µM
Staphylococcus aureus [3]
  MIC: 64 µM
Bacillus subtilis
  MIC: 16 µM
[4]
  MIC: 32 µM

## H-PWKLSLKL-OH
Escherichia coli [1]
  MIC: 16 µM
Pseudomonas aeruginosa [2]
  MIC: 32 µM
Enterobacter sp.
  MIC: 8 µM
Staphylococcus aureus [3]
  MIC: 32 µM
Bacillus subtilis
  MIC: 16 µM
[4]
  MIC: 16 µM

## H-PWRLRLHL-OH
Escherichia coli [1]
  MIC: 8 µM
Pseudomonas aeruginosa [2]
  MIC: 32 µM
Enterobacter sp.
  MIC: 8 µM
Staphylococcus aureus [3]
  MIC: 32 µM
Bacillus subtilis
  MIC: 8 µM
[4]
  MIC: 16 µM

## H-PWRLSLHL-OH
Escherichia coli [1]
  MIC: 16 µM
Pseudomonas aeruginosa [2]
  MIC: 32 µM
Enterobacter sp.
  MIC: 16 µM
Staphylococcus aureus [3]
  MIC: 32 µM
Bacillus subtilis
  MIC: 16 µM
[4]
  MIC: 8 µM

## H-PWRLSLRL-OH
Escherichia coli [1]
  MIC: 8 µM
Pseudomonas aeruginosa [2]
  MIC: 8 µM
Enterobacter sp.
  MIC: 8 µM
Staphylococcus aureus [3]
  MIC: 32 µM
Bacillus subtilis
  MIC: 8 µM
[4]
  MIC: 16 µM
